According to US20240351977A1, “Compositions and Methods For Reducing Immune Intolerance and Treating Autoimmune Disorders” (Lapix Therapeutics, Inc., priority 2021, published 2024):
One block for each molecule: values may come before it.

Experiments:
[1] = test system: FoxP3^+/TIM3^+ CD4 T-cells; assay: In vitro dose-response analysis in murine T-cells (splenocytes, flow cytometry); type: cell-based, C57BL/6 mice; conditions: for change in FoxP3+/TIM3+ CD4 T-cells with dose: 48 μM to 1.5 μM; for EC50 / EC90: Mus musculus, T-cell, increase in percent FoxP3+/TIM3+ CD4 T-cells, 30:70 drug:DMPC liposomes, 4-parameter model, Emax fixed to 7.9%; for EC50: read-out: EC50 mean (SE); for EC90: read-out: EC90 mean (SE)
Method: Compound 1 and Compound 2 were each formulated with dimyristoylphosphatidylcholine (DMPC) at a 30:70 drug to lipid molar ratio. Liposomes were synthesized according to Example 2 in PBS.
Splenocytes from naïve C57BL/6 mice were stained with CFSE, prepared, cultured, and dosed. Cells were seeded at 2×10^5 cells/well. Cells were dosed with each compound from 48 μM to 1.5 μM at a log 2 dilution scheme. Cells were incubated for 72 hours before phenotyping for FoxP3^+/TIM3^+ CD4 T-cells. Flow cytometer analysis was performed to assess changes in percent FoxP3^+/TIM3^+ CD4 T-cells as a function of treatment and dose. Concentration versus response was fitted to a four- or five-parameter log-logistic model (using the “drc” package in “R”). The EC50 and EC90 values were obtained by model fitting.

FoxP3^+/CD4^+ T-cells [2] = assay: Splenocyte flow cytometry at end of EAE study; type: in vivo, mice
Method: At the end of the study, spleens were collected from a representative sample of mice from each group for splenocyte analysis. A single-cell suspension was prepared for cellular phenotyping by flow cytometry. Cells were stained and gated for CD4^+T-cells. Percent FoxP3^+/CD4^+ T-cells were evaluated by flow cytometry.

FoxP3^+/CD4^+ T-cells [3] = assay: Pharmacodynamic effects of a single PO dose in mice (splenocyte phenotyping); type: in vivo; conditions: for percentage of FoxP3+/CD4+ T-cells, mean value: single oral gavage, 10:90 Compound 2:DMPC
Method: Compound 2 was dissolved in DMSO and formulated with 1,2-dimyristoyl-sn-glycero-3-phosphocholine (DMPC) at a molar ratio of 10:90 Compound 2:DMPC, as described in Example 2. Animals were dosed according to Table 7.
To evaluate the PD effects of a single dose of Compound 2 in mice, the animals were administered a single oral gavage as per their group assignment (Table 7). Five days after the oral dose, the animals were sacrificed and their spleens were collected for T-cell phenotyping. The study included an ex vivo analysis followed by a dose-response analysis (FIG. 4A). The spleens collected for splenocyte analysis were prepared into a single-cell suspension for cellular phenotyping by flow cytometry (eBioscience, Inc., San Diego, CA). Cells were stained and gated for CD4. Percent FoxP3^+/CD4^+ T-cells were evaluated using flow cytometry. A dose versus response curve was fitted to a four- or five-parameter log-logistic model (using the “drc” package in “R”). The EC50 and EC90 values were obtained by model fitting.

[4] = test system: MOG35-55-Induced Murine EAE Model; assay: MOG35-55-induced murine EAE model, prophylactic and therapeutic treatment; type: in vivo, mice
Method: Compound 2 was formulated with 1,2-distearoyl-sn-glycero-3-phosphocholine (DSPC) at a molar ratio of 3.75:96.25 Compound 2:DSPC. Two test articles were formulated and tested. The first formulation was made with Compound 2:DSPC with MOG35-55, referred to as Compound 2/MOG35-55. Another formulation was made without […], and is referred to as Compound 2. […] The ratio of Compound 2 to DSPC was chosen based on in vitro dose-response studies. Liposomes were prepared as described in Example 2, in PBS and extruded through a […] filter. Animals were dose with 100 μl of 42 μM Compound 2 or 100 μl of 42 μM/1 μg Compound 2/MOG35-55 per mouse PO QD. This dose was selected based on in vitro dose-response analysis.
In the active EAE model, mice are immunized with MOG35-55 peptide emulsified in Complete Freund's Adjuvant (CFA) by subcutaneous injection at the tail base (0.1 mL of emulsion/mouse) under anesthesia. On the day of injection (Day 0) and 2 days later, mice receive an intraperitoneal injection of Pertussis Toxin (PT) in PBS at 600 ng/mouse/dose (0.1 mL).
Symptoms typically develop in mice 9-14 days after immunization (Day 0). Daily observation and scoring of mice start on Day 9 and continue until the end of the study. Table 10 details the expected clinical symptoms and the scoring criteria used in this study.
Mice were dosed with 100 μl of 42 μM Compound 2 or 100 μl of 42 μM of Compound 2 co-formulated with 1 μg of MOG35-55 (Compound 2/MOG35-55) orally QD for the duration of the study.
To evaluate the therapeutic effects of Compound 2, treatment was initiated after the first clinical symptoms were observed. […] The treatment arm received 100 μl of 42 μM Compound 2 PO QD for the remainder of the study. Mice in all groups were monitored and scored daily for clinical symptoms. Once a mouse reached a score of five as per Table 11 or was found dead in the cage it was marked as an event in the survival analysis.

[5] = mouse treated after the onset of symptoms
[6] = four-parameter dose-response model, percent FoxP3+/CD4+ T-cells, single oral dose
[7] = four-parameter dose-response model, single oral dose, 100 μl/mouse

cell appearance via microscope at end of incubation ([1]; 48 μM, 72 hours): did not look healthy
EC50 ([1]; 72 hours): 13.4 µM
EC90 ([1]; 72 hours): 15 µM
Compound: CCCCCCCCCCCCCCCCOC(=O)NC[C@H](N)C(=O)O [Compound 1, (S)-2-amino-3-(((hexadecyloxy)carbonyl)amino) propanoic acid]
increase in FoxP3+/TIM3+ CD4 T-cells over low dose ([1]; 10 μM): 126%
change in FoxP3+/TIM3+ CD4 T-cells with dose [1]: dose-dependent increase
FoxP3+/TIM3+ double positive CD4 T-cells, mean value ([1]; high dose, 72 hours): 8.26%
FoxP3+/TIM3+ double positive CD4 T-cells, mean value ([1]; low dose, 72 hours): 3.65%

Compound: CCCCCCCCCCCCCCCCCC(=O)NC[C@H](N)C(=O)O [Compound 2, (S)-2-amino-3-stearamidopropanoic acid]
increase in FoxP3+/TIM3+ CD4 T-cells over low dose ([1]; 30 μM): 129%
toxicity in vitro ([1]; 30 µM dose): less toxicity in vitro compared to Compound 1
change in FoxP3+/TIM3+ CD4 T-cells with dose [1]: dose-dependent increase
EC50 ([1]; 72 hours): 14.6 µM
EC90 ([1]; 72 hours): 17.8 µM
FoxP3+/TIM3+ double positive CD4 T-cells, mean value ([1]; high dose, 72 hours): 7.36%
FoxP3+/TIM3+ double positive CD4 T-cells, mean value ([1]; low dose, 72 hours): 3.21%
maximum efficacious dose in vitro ([1]; preliminary data): 42 µM
increase of Foxp3+/CD4+ T-cells over the surviving mouse in the untreated group (FoxP3^+/CD4^+ T-cells [2]; [5]): 715%
percent Foxp3+/CD4+ T-cell (FoxP3^+/CD4^+ T-cells [2]; [5]): 26.1%
increase of Foxp3+/CD4+ T-cells over control (FoxP3^+/CD4^+ T-cells [2]; prophylactic group): 225%
percent of Foxp3+/CD4+ T-cells (FoxP3^+/CD4^+ T-cells [2]; prophylactic group, end of study, control 3.20%): 10.4%
E0 (model estimated), Mean (FoxP3^+/CD4^+ T-cells [3]; [6]): 3.3
Emax (model estimated), Mean (FoxP3^+/CD4^+ T-cells [3]; [6]): 12.1%
ED50 (FoxP3^+/CD4^+ T-cells [3]; [7]): 43.1 µM
ED90 (FoxP3^+/CD4^+ T-cells [3]; [7]): 281.0 µM
percentage of FoxP3+/CD4+ T-cells, mean value (FoxP3^+/CD4^+ T-cells [3]; high dose group, 5 days): 11.53%
percentage of FoxP3+/CD4+ T-cells, mean value (FoxP3^+/CD4^+ T-cells [3]; low dose group, 5 days): 3.87%
increase of FoxP3+/CD4+ T-cells (T-regs), high dose group compared to low dose group (FoxP3^+/CD4^+ T-cells [3]; single oral dose, 5 days): 219%
mean clinical score by end of the study ([4]; prophylactic): 2.1
disease onset, day after immunization ([4]; prophylactic, 100 μl of 42 μM PO QD from four days after immunization, control day 9): 12 days
mean clinical score at peak symptoms ([4]; prophylactic, day 17, control 4.77): 2.6
day by which all animals showed symptoms ([4]; prophylactic, control 11): 13 days
delay in disease progression after disease onset ([4]; therapeutic, 100 μl of 42 μM PO QD from clinical score of 1): one-day
mean clinical score lower than in the untreated arm ([4]; therapeutic, by the end of the study): 54%
mean clinical score at peak symptoms ([4]; therapeutic, day 6 after the onset of symptoms, control 4.77 on day 7): 2.8
mean clinical score after the peak ([4]; therapeutic, day 10 after the onset of symptoms): 2.33
animals that spontaneously died or were euthanized (survival analysis) ([4]; untreated group eight out of nine): zero out of nine
